Assays:
Type in all cases: in vivo
[1] = test system: barnyardgrass (Echinochloa crus-galli); assay: Test G Pre-Emergence Protocol; settings: Echinochloa crus-galli, pre-emergence, 312 h, evaluated after 13 days; for pest or weed control at 15.625 g/ha: 15.625 g ai/ha; for pest or weed control at 15.625 g/ha / pest or weed control at 250 g/ha: read-out: Barnyardgrass damage rating (100=total damage to plant; 0=no damage to plant); for pest or weed control at 62.5 g/ha: 62.5 g ai/ha, 100=total damage to plant, 0=no damage to plant, read-out: Barnyardgrass damage rating; for pest or weed control at 250 g/ha: 250 g ai/ha
Method in brief: (§1)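 Glasshouse pre-emergence test: soil-sown seeds, sprayed after 1 d at 15.625, 62.5 or 250 g/ha. Conditions 24/16° C day/night, 14 h light, 65% humidity, watering twice daily. Rating 13 d post-spray (100 = total damage).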

corn (Zea mays) [2] = assay: Test G Pre-Emergence Protocol; settings: Zea mays, pre-emergence, 312 h, evaluated after 13 days; for plant injury at 15.625 g/ha: 15.625 g ai/ha; for plant injury at 15.625 g/ha / plant injury at 250 g/ha: read-out: Corn damage rating (100=total damage to plant; 0=no damage to plant); for plant injury at 62.5 g/ha: 62.5 g ai/ha, 100=total damage to plant, 0=no damage to plant, read-out: Corn damage rating; for plant injury at 250 g/ha: 250 g ai/ha
Method in brief: as §1

[3] = test system: giant foxtail (Setaria faberi); assay: Test G Pre-Emergence Protocol; settings: Setaria faberi, pre-emergence, 312 h, evaluated after 13 days; for pest or weed control at 15.625 g/ha: 15.625 g ai/ha; for pest or weed control at 15.625 g/ha / pest or weed control at 250 g/ha: read-out: Foxtail, Giant damage rating (100=total damage to plant; 0=no damage to plant); for pest or weed control at 62.5 g/ha: 62.5 g ai/ha, 100=total damage to plant, 0=no damage to plant, read-out: Foxtail, Giant damage rating; for pest or weed control at 250 g/ha: 250 g ai/ha
Method in brief: as §1

[4] = test system: ivy-leaved morning glory (Ipomoea hederacea); assay: Test G Pre-Emergence Protocol; settings: Ipomoea, pre-emergence, 312 h, evaluated after 13 days; for pest or weed control at 15.625 g/ha: 15.625 g ai/ha; for pest or weed control at 15.625 g/ha / pest or weed control at 250 g/ha: read-out: Morningglory, Ivy-leaved damage rating (100=total damage to plant; 0=no damage to plant); for pest or weed control at 62.5 g/ha: 62.5 g ai/ha, 100=total damage to plant, 0=no damage to plant, read-out: Morningglory, Ivy-leaved damage rating; for pest or weed control at 250 g/ha: 250 g ai/ha
Method in brief: as §1

[5] = test system: redroot pigweed (Amaranthus retroflexus); assay: Test G Pre-Emergence Protocol; settings: Amaranthus retroflexus, pre-emergence, 312 h, evaluated after 13 days; for pest or weed control at 15.625 g/ha: 15.625 g ai/ha; for pest or weed control at 15.625 g/ha / pest or weed control at 250 g/ha: read-out: Pigweed, Redroot damage rating (100=total damage to plant; 0=no damage to plant); for pest or weed control at 62.5 g/ha: 62.5 g ai/ha, 100=total damage to plant, 0=no damage to plant, read-out: Pigweed, Redroot damage rating; for pest or weed control at 250 g/ha: 250 g ai/ha
Method in brief: as §1

[6] = test system: velvetleaf (Abutilon theophrasti); assay: Test G Pre-Emergence Protocol; settings: Abutilon theophrasti, pre-emergence, 312 h, evaluated after 13 days; for pest or weed control at 15.625 g/ha: 15.625 g ai/ha; for pest or weed control at 15.625 g/ha / pest or weed control at 250 g/ha: read-out: Velvetleaf damage rating (100=total damage to plant; 0=no damage to plant); for pest or weed control at 62.5 g/ha: 62.5 g ai/ha, 100=total damage to plant, 0=no damage to plant, read-out: Velvetleaf damage rating; for pest or weed control at 250 g/ha: 250 g ai/ha
Method in brief: as §1

[7] = test system: barnyardgrass (Echinochloa crus-galli); assay: Test G Post-Emergence Protocol; settings: Echinochloa crus-galli, post-emergence, 312 h, read-out: Barnyardgrass damage rating; for pest or weed control at 15.625 g/ha: 15.625 g ai/ha, evaluated after 13 days (100=total damage to plant; 0=no damage to plant); for pest or weed control at 62.5 g/ha: 62.5 g ai/ha; for pest or weed control at 62.5 g/ha / pest or weed control at 250 g/ha: evaluated after 13 days, 100=total damage to plant, 0=no damage to plant; for pest or weed control at 250 g/ha: 250 g ai/ha
Method in brief: (§2)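 A glasshouse post-emergence test: 8-day-old plants sprayed at 15.625, 62.5 or 250 g/ha, then grown at 24/16 °C day/night with 14 h light and 65% humidity. Damage rated 13 days later, 0–100.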

corn (Zea mays) [8] = assay: Test G Post-Emergence Protocol; settings: Zea mays, post-emergence, 312 h, read-out: Corn damage rating; for plant injury at 15.625 g/ha: 15.625 g ai/ha, evaluated after 13 days (100=total damage to plant; 0=no damage to plant); for plant injury at 62.5 g/ha: 62.5 g ai/ha; for plant injury at 62.5 g/ha / plant injury at 250 g/ha: evaluated after 13 days, 100=total damage to plant, 0=no damage to plant; for plant injury at 250 g/ha: 250 g ai/ha
Method in brief: as §2

[9] = test system: giant foxtail (Setaria faberi); assay: Test G Post-Emergence Protocol; settings: Setaria faberi, post-emergence, 312 h, read-out: Foxtail, Giant damage rating; for pest or weed control at 15.625 g/ha: 15.625 g ai/ha, evaluated after 13 days (100=total damage to plant; 0=no damage to plant); for pest or weed control at 62.5 g/ha: 62.5 g ai/ha; for pest or weed control at 62.5 g/ha / pest or weed control at 250 g/ha: evaluated after 13 days, 100=total damage to plant, 0=no damage to plant; for pest or weed control at 250 g/ha: 250 g ai/ha
Method in brief: as §2

[10] = test system: ivy-leaved morning glory (Ipomoea hederacea); assay: Test G Post-Emergence Protocol; settings: Ipomoea, post-emergence, 312 h, read-out: Morningglory, Ivy-leaved damage rating; for pest or weed control at 15.625 g/ha: 15.625 g ai/ha, evaluated after 13 days (100=total damage to plant; 0=no damage to plant); for pest or weed control at 62.5 g/ha: 62.5 g ai/ha; for pest or weed control at 62.5 g/ha / pest or weed control at 250 g/ha: evaluated after 13 days, 100=total damage to plant, 0=no damage to plant; for pest or weed control at 250 g/ha: 250 g ai/ha
Method in brief: as §2

[11] = test system: redroot pigweed (Amaranthus retroflexus); assay: Test G Post-Emergence Protocol; settings: Amaranthus retroflexus, post-emergence, 312 h, read-out: Pigweed, Redroot damage rating; for pest or weed control at 15.625 g/ha: 15.625 g ai/ha, evaluated after 13 days (100=total damage to plant; 0=no damage to plant); for pest or weed control at 62.5 g/ha: 62.5 g ai/ha; for pest or weed control at 62.5 g/ha / pest or weed control at 250 g/ha: evaluated after 13 days, 100=total damage to plant, 0=no damage to plant; for pest or weed control at 250 g/ha: 250 g ai/ha
Method in brief: as §2

[12] = test system: velvetleaf (Abutilon theophrasti); assay: Test G Post-Emergence Protocol; settings: Abutilon theophrasti, post-emergence, 312 h, read-out: Velvetleaf damage rating; for pest or weed control at 15.625 g/ha: 15.625 g ai/ha, evaluated after 13 days (100=total damage to plant; 0=no damage to plant); for pest or weed control at 62.5 g/ha: 62.5 g ai/ha; for pest or weed control at 62.5 g/ha / pest or weed control at 250 g/ha: evaluated after 13 days, 100=total damage to plant, 0=no damage to plant; for pest or weed control at 250 g/ha: 250 g ai/ha
Method in brief: as §2

Structure (SMILES)	pest or weed control at 15.625 g/ha [1] [%]	pest or weed control at 62.5 g/ha [1] [%]	pest or weed control at 250 g/ha [1] [%]	plant injury at 15.625 g/ha (corn (Zea mays) [2]) [%]	plant injury at 62.5 g/ha (corn (Zea mays) [2]) [%]	plant injury at 250 g/ha (corn (Zea mays) [2]) [%]	pest or weed control at 15.625 g/ha [3] [%]	pest or weed control at 62.5 g/ha [3] [%]	pest or weed control at 250 g/ha [3] [%]	pest or weed control at 15.625 g/ha [4] [%]	pest or weed control at 62.5 g/ha [4] [%]	pest or weed control at 250 g/ha [4] [%]	pest or weed control at 15.625 g/ha [5] [%]	pest or weed control at 62.5 g/ha [5] [%]	pest or weed control at 250 g/ha [5] [%]	pest or weed control at 15.625 g/ha [6] [%]	pest or weed control at 62.5 g/ha [6] [%]	pest or weed control at 250 g/ha [6] [%]	pest or weed control at 15.625 g/ha [7] [%]	pest or weed control at 62.5 g/ha [7] [%]	other results
COC(=O)c1cc([C@H]2CN(C)C(=O)[C@@H]2C(=O)Nc2cccc(F)c2F)ccc1C (racemic) [Compound 1683]	60	70	80	30	50	80	70	80	90	0	10	60	20	20	20	0	10	30	70	70	pest or weed control at 250 g/ha [7]: 80%; plant injury at 15.625 g/ha (corn (Zea mays) [8]): 20%; plant injury at 62.5 g/ha (corn (Zea mays) [8]): 40%; plant injury at 250 g/ha (corn (Zea mays) [8]): 80%; pest or weed control at 15.625 g/ha [9]: 70%; pest or weed control at 62.5 g/ha [9]: 80%; pest or weed control at 250 g/ha [9]: 80%; pest or weed control at 15.625 g/ha [10]: 30%; pest or weed control at 62.5 g/ha [10]: 30%; pest or weed control at 250 g/ha [10]: 50%; pest or weed control at 15.625 g/ha [11]: 30%; pest or weed control at 62.5 g/ha [11]: 10%; pest or weed control at 250 g/ha [11]: 40%; pest or weed control at 15.625 g/ha [12]: 0%; pest or weed control at 62.5 g/ha [12]: 20%; pest or weed control at 250 g/ha [12]: 50%
CN1C[C@H](c2ccc(C(F)F)cc2)[C@@H](C(=O)Nc2cccc(F)c2F)C1=O (racemic) [Compound 1728]	70	90	90	30	80	80	80	90	90	0	30	80	30	80	80	40	60	80	70	80	pest or weed control at 250 g/ha [7]: 80%; plant injury at 15.625 g/ha (corn (Zea mays) [8]): 60%; plant injury at 62.5 g/ha (corn (Zea mays) [8]): 60%; plant injury at 250 g/ha (corn (Zea mays) [8]): 80%; pest or weed control at 15.625 g/ha [9]: 80%; pest or weed control at 62.5 g/ha [9]: 80%; pest or weed control at 250 g/ha [9]: 80%; pest or weed control at 15.625 g/ha [10]: 0%; pest or weed control at 62.5 g/ha [10]: 20%; pest or weed control at 250 g/ha [10]: 70%; pest or weed control at 15.625 g/ha [11]: 20%; pest or weed control at 62.5 g/ha [11]: 0%; pest or weed control at 250 g/ha [11]: 80%; pest or weed control at 15.625 g/ha [12]: 30%; pest or weed control at 62.5 g/ha [12]: 30%; pest or weed control at 250 g/ha [12]: 60%
